Target: human mGluR4 (Homo sapiens, UniProt Q14833)
Assay: potentiation of human mGluR4 in transfected CHO cells, Ca2+-sensitive dye fluorescence, EC20 agonist
Conditions: CHO, read-out: % Glu Max

human mGluR4, sequence (Q14833 33-912): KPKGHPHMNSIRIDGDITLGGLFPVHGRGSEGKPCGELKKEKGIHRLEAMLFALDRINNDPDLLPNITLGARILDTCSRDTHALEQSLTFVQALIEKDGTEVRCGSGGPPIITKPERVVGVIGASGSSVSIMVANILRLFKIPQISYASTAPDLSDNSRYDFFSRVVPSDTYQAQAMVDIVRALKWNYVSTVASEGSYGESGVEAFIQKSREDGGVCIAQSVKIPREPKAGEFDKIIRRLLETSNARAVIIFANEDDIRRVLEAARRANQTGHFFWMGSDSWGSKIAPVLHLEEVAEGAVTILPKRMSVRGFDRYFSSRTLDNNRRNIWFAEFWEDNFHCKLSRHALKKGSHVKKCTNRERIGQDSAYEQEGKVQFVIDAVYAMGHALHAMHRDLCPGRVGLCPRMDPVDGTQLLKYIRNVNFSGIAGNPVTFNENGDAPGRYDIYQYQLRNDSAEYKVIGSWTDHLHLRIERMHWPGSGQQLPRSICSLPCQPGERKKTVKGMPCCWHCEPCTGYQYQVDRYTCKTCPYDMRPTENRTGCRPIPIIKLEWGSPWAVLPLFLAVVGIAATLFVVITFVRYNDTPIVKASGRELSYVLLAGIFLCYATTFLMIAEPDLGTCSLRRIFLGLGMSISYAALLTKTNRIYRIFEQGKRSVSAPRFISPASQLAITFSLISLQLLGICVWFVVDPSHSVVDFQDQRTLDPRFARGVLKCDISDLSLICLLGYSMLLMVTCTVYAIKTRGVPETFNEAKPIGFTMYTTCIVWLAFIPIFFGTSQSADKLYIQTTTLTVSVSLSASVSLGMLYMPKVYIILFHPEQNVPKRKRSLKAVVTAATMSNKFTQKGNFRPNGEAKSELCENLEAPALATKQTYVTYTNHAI

Row | SMILES | Emax
1 | O=C(Nc1ccn(S(=O)(=O)c2ccccc2Cl)c1)c1ccccn1 [Example 11] | 91%
2 | O=C(Nc1ccn(S(=O)(=O)Cc2ccccc2)c1)c1ccncn1 [Example 45, N-(1-(benzylsulfonyl)-1H-pyrrol-3-yl)pyrimidine-4-carboxamide] | 57%
3 | O=C(Nc1ccn(S(=O)(=O)c2ccccc2C(F)(F)F)c1)c1ccccn1 [Example 10] | 101%
4 | Cc1ccccc1S(=O)(=O)n1ccc(NC(=O)c2ccccn2)c1 [Example 9] | 67%
5 | O=C(Nc1ccn(S(=O)(=O)Cc2ccccc2)c1)c1cc(F)ccn1 [Example 39, N-(1-(benzylsulfonyl)-1H-pyrrol-3-yl)-4-fluoropicolinamide] | 35%
6 | O=C(Nc1ccn(S(=O)(=O)Cc2ccccc2)c1)c1ccccn1 [Example 2, N-(1-(benzylsulfonyl)-1H-pyrrol-3-yl)picolinamide] | 275%

Same assay, conditions: EC50 (nM), potentiation of EC20 agonist response; Table I

Row | SMILES | EC50
7 | O=C(Nc1ccn(S(=O)(=O)c2ccccc2Cl)c1)c1ccccn1 [Example 11] | 222 nM
8 | O=C(Nc1ccn(S(=O)(=O)Cc2ccccc2)c1)c1ccncn1 [Example 45, N-(1-(benzylsulfonyl)-1H-pyrrol-3-yl)pyrimidine-4-carboxamide] | > 20000 nM
9 | O=C(Nc1ccn(S(=O)(=O)c2ccccc2C(F)(F)F)c1)c1ccccn1 [Example 10] | 526 nM
10 | Cc1ccccc1S(=O)(=O)n1ccc(NC(=O)c2ccccn2)c1 [Example 9] | 198 nM
11 | O=C(Nc1ccn(S(=O)(=O)Cc2ccccc2)c1)c1cc(F)ccn1 [Example 39, N-(1-(benzylsulfonyl)-1H-pyrrol-3-yl)-4-fluoropicolinamide] | 369 nM
12 | O=C(Nc1ccn(S(=O)(=O)Cc2ccccc2)c1)c1ccccn1 [Example 2, N-(1-(benzylsulfonyl)-1H-pyrrol-3-yl)picolinamide] | 562 nM

Same assay, conditions: hEC50, human mGluR4 potentiation; unit inferred

Row | SMILES | EC50
13 | N#Cc1ccccc1S(=O)(=O)n1ccc(NC(=O)c2ccccn2)c1 [Example 79, N-(1-((2-cyanophenyl)sulfonyl)-1H-pyrrol-3-yl)picolinamide] | 489 nM
14 | O=C(Nc1cn(S(=O)(=O)c2ccc(Cl)cc2)c2ccccc12)c1ccccn1 [Example 111, N-(1-((4-chlorophenyl)sulfonyl)-1H-indol-3-yl)picolinamide] | 12200 nM
15 | Cc1ccc(CS(=O)(=O)n2ccc(NC(=O)c3ccccn3)c2)cc1 [Example 47, N-(1-((4-methylbenzyl)sulfonyl)-1H-pyrrol-3-yl)picolinamide] | 280 nM
16 | O=C(Nc1ccn(S(=O)(=O)c2cnc3ccccc3c2)c1)c1ccccn1 [Example 136, N-(1-(quinolin-3-ylsulfonyl)-1H-pyrrol-3-yl)picolinamide] | 253 nM
17 | O=C(Nc1ccn(S(=O)(=O)Cc2c(Cl)cccc2Cl)c1)c1ccccn1 [Example 98, N-(1-((2,6-dichlorobenzyl)sulfonyl)-1H-pyrrol-3-yl)picolinamide] | 119 nM
18 | Cc1ccc(S(=O)(=O)n2ccc(NC(=O)c3ccccn3)c2)cc1Cl [Example 112, N-(1-((3-chloro-4-methylphenyl)sulfonyl)-1H-pyrrol-3-yl)picolinamide] | 129 nM
19 | O=C(Nc1ccn(S(=O)(=O)Cc2ccc(Br)cc2)c1)c1ccccn1 [Example 70, N-(1-((4-bromobenzyl)sulfonyl)-1H-pyrrol-3-yl)picolinamide] | 144 nM
20 | O=C(Nc1ccn(S(=O)(=O)c2cc(F)c(F)c(F)c2)c1)c1ccccn1 [Example 126, N-(1-((3,4,5-trifluorophenyl)sulfonyl)-1H-pyrrol-3-yl)picolinamide] | 276 nM
21 | O=C(Nc1ccn(S(=O)(=O)c2ccccc2OC(F)F)c1)c1ccccn1 [Example 73, N-(1-((2-(difluoromethoxy)phenyl)sulfonyl)-1H-pyrrol-3-yl)picolinamide] | 570 nM
22 | O=C(Nc1ccn(S(=O)(=O)Cc2ccccc2Cl)c1)c1cscn1 [Example 62, N-(1-((2-chlorobenzyl)sulfonyl)-1H-pyrrol-3-yl)thiazole-4-carboxamide] | 492 nM
23 | O=C(Nc1ccn(S(=O)(=O)c2cc(Cl)ccc2Cl)c1)c1ccccn1 [Example 78, N-(1-((2,5-dichlorophenyl)sulfonyl)-1H-pyrrol-3-yl)picolinamide] | 57.6 nM
24 | O=C(Nc1ccn(S(=O)(=O)Cc2cccc(F)c2)c1)c1nccs1 [Example 84, N-(1-((3-fluorobenzyl)sulfonyl)-1H-pyrrol-3-yl)thiazole-2-carboxamide] | 4800 nM
25 | O=C(Nc1ccn(S(=O)(=O)c2cc(F)c(F)cc2F)c1)c1ccccn1 [Example 110, N-(1-((2,4,5-trifluorophenyl)sulfonyl)-1H-pyrrol-3-yl)picolinamide] | 226 nM
26 | O=C(Nc1ccn(S(=O)(=O)c2ccc3c(c2)OCCCO3)c1)c1ccccn1 [Example 148, N-(1-((3,4-dihydro-2H-benzo[b][1,4]dioxepin-7-yl)sulfonyl)-1H-pyrrol-3-yl)picolinamide] | 41.1 nM
27 | Cc1cc(S(=O)(=O)n2ccc(NC(=O)c3ccccn3)c2)c(Cl)cc1Cl [Example 108, N-(1-((2,4-dichloro-5-methylphenyl)sulfonyl)-1H-pyrrol-3-yl)picolinamide] | 21100 nM
28 | O=C(Nc1ccn(S(=O)(=O)C(F)c2ccccc2F)c1)c1ccccn1 (stereo not drawn) [Example 105, N-(1-((fluoro(2-fluorophenyl)methyl)sulfonyl)-1H-pyrrol-3-yl)picolinamide] | 426 nM
29 | Cc1noc(C)c1S(=O)(=O)n1ccc(NC(=O)c2ccccn2)c1 [Example 141, N-(1-((3,5-dimethylisoxazol-4-yl)sulfonyl)-1H-pyrrol-3-yl)picolinamide] | 8320 nM
30 | Cc1ccc(S(=O)(=O)c2cc(NC(=O)c3ccccn3)cn2C)cc1 [Example 157, N-(1-methyl-5-tosyl-1H-pyrrol-3-yl)picolinamide] | 3680 nM
31 | O=C(Nc1ccn(S(=O)(=O)c2ccc(Cl)cc2F)c1)c1ccco1 [Example 169, N-(1-((4-chloro-2-fluorophenyl)sulfonyl)-1H-pyrrol-3-yl)furan-2-carboxamide] | 4130 nM
32 | O=C(Nc1ccn(S(=O)(=O)c2ccoc2)c1)c1ccccn1 [Example 125, N-(1-(furan-3-ylsulfonyl)-1H-pyrrol-3-yl)picolinamide] | 1490 nM
33 | O=C(Nc1ccn(S(=O)(=O)c2ccc(CO)cc2)c1)c1ccccn1 [Example 161, N-(1-((4-(hydroxymethyl)phenyl)sulfonyl)-1H-pyrrol-3-yl)picolinamide] | 1210 nM

Row | SMILES | EC50
34 | O=C(Nc1ccn(S(=O)(=O)c2ccc(Cl)s2)c1)c1ccccn1 [Example 131, N-(1-((5-chlorothiophen-2-yl)sulfonyl)-1H-pyrrol-3-yl)picolinamide] | 1040 nM
35 | O=C(Nc1ccn(S(=O)(=O)Cc2c(F)cccc2F)c1)c1nccs1 [Example 93, N-(1-((2,6-difluorobenzyl)sulfonyl)-1H-pyrrol-3-yl)thiazole-2-carboxamide] | 343 nM
36 | O=C(Nc1ccn(S(=O)(=O)Cc2ccc(F)cc2F)c1)c1ccco1 [Example 56, N-(1-((2,4-difluorobenzyl)sulfonyl)-1H-pyrrol-3-yl)furan-2-carboxamide] | 3690 nM
37 | CC(C)(C)c1ccc(S(=O)(=O)n2ccc(NC(=O)c3ccccn3)c2)cc1 [Example 58, N-(1-((4-(tert-butyl)phenyl)sulfonyl)-1H-pyrrol-3-yl)picolinamide] | 16800 nM
38 | Cc1ccc(S(=O)(=O)n2ccc(NC(=O)c3ccccn3)c2)c(C)c1 [Example 74, N-(1-((2,4-dimethylphenyl)sulfonyl)-1H-pyrrol-3-yl)picolinamide] | 880 nM
39 | CC(c1ccccc1)S(=O)(=O)n1ccc(NC(=O)c2ccccn2)c1 (stereo not drawn) [Example 96, N-(1-((1-phenylethyl)sulfonyl)-1H-pyrrol-3-yl)picolinamide] | 2300 nM
40 | O=C(Nc1ccn(S(=O)(=O)c2cccc(C(F)(F)F)c2)c1)c1ccccn1 [Example 85, N-(1-((3-(trifluoromethyl)phenyl)sulfonyl)-1H-pyrrol-3-yl)picolinamide] | 1620 nM
41 | Cc1ccc(S(=O)(=O)n2ccc(NC(=O)c3ccccn3)c2)cc1F [Example 75, N-(1-((3-fluoro-4-methylphenyl)sulfonyl)-1H-pyrrol-3-yl)picolinamide] | 104 nM
42 | O=C(Nc1ccn(S(=O)(=O)c2ccc3c(c2)OCCO3)c1)c1ccccn1 [Example 156, N-(1-((2,3-dihydrobenzo[b][1,4]dioxin-6-yl)sulfonyl)-1H-pyrrol-3-yl)picolinamide] | 45.3 nM
43 | Cc1cc(S(=O)(=O)n2ccc(NC(=O)c3ccccn3)c2)ccc1F [Example 77, N-(1-((4-fluoro-3-methylphenyl)sulfonyl)-1H-pyrrol-3-yl)picolinamide] | 396 nM
44 | O=C(Nc1ccn(S(=O)(=O)c2ccc(Cl)cn2)c1)c1ccco1 [Example 167, N-(1-((5-chloropyridin-2-yl)sulfonyl)-1H-pyrrol-3-yl)furan-2-carboxamide] | 2860 nM
45 | COC(=O)c1ccc(S(=O)(=O)n2ccc(NC(=O)c3ccccn3)c2)cc1 [Example 153, Methyl 4-((3-(picolinamido)-1H-pyrrol-1-yl)sulfonyl)benzoate] | 285 nM
46 | O=C(Nc1ccn(S(=O)(=O)c2ccc3c(c2)OCO3)c1)c1ccccn1 [Example 133, N-(1-(benzo[d][1,3]dioxol-5-ylsulfonyl)-1H-pyrrol-3-yl)picolinamide] | 110 nM
47 | Cc1cc(F)ccc1S(=O)(=O)n1ccc(NC(=O)c2ccccn2)c1 [Example 87, N-(1-((4-fluoro-2-methylphenyl)sulfonyl)-1H-pyrrol-3-yl)picolinamide] | 111 nM
48 | O=C(Nc1ccn(S(=O)(=O)c2ccc(F)c(F)c2)c1)c1ccccn1 [Example 59, N-(1-((3,4-difluorophenyl)sulfonyl)-1H-pyrrol-3-yl)picolinamide] | 379 nM
49 | N#Cc1ccc(S(=O)(=O)n2ccc(NC(=O)c3ccccn3)c2)cc1 [Example 130, N-(1-((4-cyanophenyl)sulfonyl)-1H-pyrrol-3-yl)picolinamide] | 220 nM
50 | Cc1cccc(S(=O)(=O)n2ccc(NC(=O)c3nccs3)c2)c1 [Example 53, N-(1-(m-tolylsulfonyl)-1H-pyrrol-3-yl)thiazole-2-carboxamide] | 767 nM
51 | O=C(Nc1ccn(S(=O)(=O)Cc2ccccc2Cl)c1)c1nccs1 [Example 52, N-(1-((2-chlorobenzyl)sulfonyl)-1H-pyrrol-3-yl)thiazole-2-carboxamide] | 767 nM
52 | O=C(Nc1ccn(S(=O)(=O)Cc2ccc(F)cc2Cl)c1)c1ccco1 [Example 61, N-(1-((2-chloro-4-fluorobenzyl)sulfonyl)-1H-pyrrol-3-yl)furan-2-carboxamide] | 320 nM
53 | O=C(Nc1ccn(S(=O)(=O)c2ccc(N3CCOCC3)nc2)c1)c1ccccn1 [Example 144, N-(1-((6-morpholinopyridin-3-yl)sulfonyl)-1H-pyrrol-3-yl)picolinamide] | 1070 nM
54 | O=C(Nc1ccn(S(=O)(=O)Cc2ccccc2Cl)c1)c1csnn1 [Example 66, N-(1-((2-chlorobenzyl)sulfonyl)-1H-pyrrol-3-yl)-1,2,3-thiadiazole-4-carboxamide] | 307 nM

Reference: US20130040944A1, “MGLUR4 ALLOSTERIC POTENTIATORS, COMPOSITIONS, AND METHODS OF TREATING NEUROLOGICAL DYSFUNCTION” (VANDERBILT UNIVERSITY, priority 2009, published 2013)
